# Results from PubChem BioAssay AID220 (DTP/NCI, 2004).
# Several values for one entry are separate records, joined by “and”; a condition that tells them apart may be missing. Identical values can stand only once. Inconclusive results are not listed.
# Test system: CD8F1 mice, subcutaneous mammary adenocarcinoma, T/C%
# Experiment: NCI In Vivo Anticancer Drug Screen. Data for tumor model Mammary Adenocarcinoma CD8F1 (subcutaneous) in CD8F1
# Conditions: higher = larger tumour
# How it was run: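 Ratio of treated to vehicle-control outcome, based on either survival or tumor size, in mice bearing transplantable tumors given the test compound.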
# [1] = endpoint: median tumor weight (est.), dose: 12.5 mg/kg/injection, schedule: Q07DX005 (ip), vehicle: saline with Tween-80
# [2] = endpoint: median tumor weight (est.), dose: 50.0 mg/kg/injection, schedule: Q07DX005 (ip), vehicle: saline with Tween-80
# [3] = endpoint: median tumor weight change, dose: 62.5 mg/kg/injection, schedule: Q01DX001 (ip), vehicle: saline with Tween-80
# [4] = endpoint: median tumor weight change, dose: 125.0 mg/kg/injection, schedule: Q01DX001 (ip), vehicle: saline with Tween-80
# [5] = endpoint: median tumor weight (est.), dose: 12.5 mg/kg/injection, schedule: Q07DX005 (ip), vehicle: saline
# [6] = endpoint: median tumor weight (est.), dose: 25.0 mg/kg/injection, schedule: Q07DX005 (ip), vehicle: saline
# [7] = endpoint: median tumor weight (est.), dose: 50.0 mg/kg/injection, schedule: Q07DX005 (ip), vehicle: saline
# [8] = endpoint: median tumor weight (est.), dose: 100.0 mg/kg/injection, schedule: Q07DX005 (ip), vehicle: saline
# [9] = endpoint: median tumor weight (est.), dose: 200.0 mg/kg/injection, schedule: Q07DX005 (ip), vehicle: saline
smiles,measurement,setting,value
CC(C)(C)c1ccc(CN2CCN(C(c3ccccc3)c3ccc(Cl)cc3)CC2)cc1 (stereo not given),T/C,"endpoint: median tumor weight change, dose: 8.0 mg/kg/injection, schedule: Q01DX001 (ip), vehicle: Klucel (hydroxypropylcellulose) (HPC)",98 % of control
same,T/C,"endpoint: median tumor weight change, dose: 16.0 mg/kg/injection, schedule: Q01DX001 (ip), vehicle: Klucel (hydroxypropylcellulose) (HPC)",96 % of control
same,T/C,"endpoint: median tumor weight change, dose: 32.0 mg/kg/injection, schedule: Q01DX001 (ip), vehicle: Klucel (hydroxypropylcellulose) (HPC)",101 % of control
same,T/C,"endpoint: median tumor weight change, dose: 64.0 mg/kg/injection, schedule: Q01DX001 (ip), vehicle: Klucel (hydroxypropylcellulose) (HPC)",108 % of control
same,T/C,"endpoint: median tumor weight change, dose: 128.0 mg/kg/injection, schedule: Q01DX001 (ip), vehicle: Klucel (hydroxypropylcellulose) (HPC)",55 % of control
same,T/C,"endpoint: median tumor weight change, dose: 256.0 mg/kg/injection, schedule: Q01DX001 (ip), vehicle: Klucel (hydroxypropylcellulose) (HPC)",84 % of control
CCCCCCCC(=O)[O][Hg][CH2]C1COC([CH2][Hg][O]C(=O)CCCCCCC)CO1 (stereo not given),T/C,"endpoint: median tumor weight (est.), dose: 3.0 mg/kg/injection, schedule: Q07DX005 (ip), vehicle: saline with Tween-80",90 % of control
same,T/C,"endpoint: median tumor weight (est.), dose: 6.0 mg/kg/injection, schedule: Q07DX005 (ip), vehicle: saline with Tween-80",95 % of control
same,T/C,"endpoint: median tumor weight (est.), dose: 6.25 mg/kg/injection, schedule: Q07DX005 (ip), vehicle: saline with Tween-80",100 % of control
same,T/C,"endpoint: median tumor weight (est.), dose: 12.0 mg/kg/injection, schedule: Q07DX005 (ip), vehicle: saline with Tween-80",80 % of control
same,T/C,[1],50 % of control
same,T/C,[2],100 % of control
C[N+](C)(C)c1cc2c(nn1)Nc1ccccc1S2,T/C,"endpoint: median tumor weight (est.), dose: 12.5 mg/kg/injection, schedule: Q07DX005 (ip), vehicle: Klucel (hydroxypropylcellulose) (HPC)",86 % of control
same,T/C,"endpoint: median tumor weight (est.), dose: 25.0 mg/kg/injection, schedule: Q07DX005 (ip), vehicle: Klucel (hydroxypropylcellulose) (HPC)",106 % of control
same,T/C,"endpoint: median tumor weight (est.), dose: 50.0 mg/kg/injection, schedule: Q07DX005 (ip), vehicle: Klucel (hydroxypropylcellulose) (HPC)",107 % of control
same,T/C,"endpoint: median tumor weight (est.), dose: 100.0 mg/kg/injection, schedule: Q07DX005 (ip), vehicle: Klucel (hydroxypropylcellulose) (HPC)",116 % of control
C[Si](C)(C)O/C=C1\CCCCC1=O,T/C,"endpoint: median tumor weight change, dose: 62.0 mg/kg/injection, schedule: Q01DX001 (ip), vehicle: saline with Tween-80",70 % of control
same,T/C,[3],119 % of control
same,T/C,[4],54 % of control and 69 % of control
same,T/C,"endpoint: median tumor weight change, dose: 250.0 mg/kg/injection, schedule: Q01DX001 (ip), vehicle: saline with Tween-80",93 % of control
CC1=C2CC(C)(C)/C=C\C(=O)/C(C)=C\C3=C[C@H](C)C[C@]3(O2)C1=O,T/C,"endpoint: median tumor weight (est.), dose: 1.5 mg/kg/injection, schedule: Q07DX005 (ip), vehicle: Klucel (hydroxypropylcellulose) (HPC)",78 % of control
same,T/C,"endpoint: median tumor weight (est.), dose: 1.5 mg/kg/injection, schedule: Q07DX005 (ip), vehicle: saline",94 % of control
same,T/C,"endpoint: median tumor weight (est.), dose: 3.0 mg/kg/injection, schedule: Q07DX005 (ip), vehicle: Klucel (hydroxypropylcellulose) (HPC)",212 % of control
same,T/C,"endpoint: median tumor weight (est.), dose: 6.0 mg/kg/injection, schedule: Q07DX005 (ip), vehicle: Klucel (hydroxypropylcellulose) (HPC)",174 % of control
same,T/C,"endpoint: median tumor weight (est.), dose: 6.0 mg/kg/injection, schedule: Q07DX005 (ip), vehicle: saline",112 % of control
same,T/C,"endpoint: median tumor weight (est.), dose: 12.0 mg/kg/injection, schedule: Q07DX005 (ip), vehicle: Klucel (hydroxypropylcellulose) (HPC)",80 % of control
same,T/C,"endpoint: median tumor weight (est.), dose: 12.0 mg/kg/injection, schedule: Q07DX005 (ip), vehicle: saline",88 % of control
same,T/C,"endpoint: median tumor weight (est.), dose: 24.0 mg/kg/injection, schedule: Q07DX005 (ip), vehicle: Klucel (hydroxypropylcellulose) (HPC)",466 % of control
same,T/C,"endpoint: median tumor weight (est.), dose: 48.0 mg/kg/injection, schedule: Q07DX005 (ip), vehicle: saline",44 % of control
O=C(C/C(=N\C(=S)Nc1cc(C(F)(F)F)ccc1Cl)NO)N1CCCC1,T/C,[3],76 % of control
same,T/C,[4],83 % of control and 90 % of control
Cc1ccc2c(c1)C(=O)N(CC[P+](c1ccccc1)(c1ccccc1)c1ccccc1)C2=O,T/C,"endpoint: mean tumor weight, dose: 1.56 mg/kg/injection, schedule: Q07DX006 (ip), vehicle: water",90 % of control
same,T/C,"endpoint: mean tumor weight, dose: 6.25 mg/kg/injection, schedule: Q07DX006 (ip), vehicle: water",96 % of control
same,T/C,"endpoint: median tumor weight (est.), dose: 3.12 mg/kg/injection, schedule: Q07DX005 (ip), vehicle: water",56 % of control
same,T/C,"endpoint: median tumor weight (est.), dose: 6.25 mg/kg/injection, schedule: Q07DX005 (ip), vehicle: water",111 % of control
CCC1=C[C@H]2CN(CCc3c([nH]c4ccccc34)[C@@](C(=O)OC)(c3cc4c(cc3OC)N(C)[C@H]3[C@@](O)(C(=O)OC)[C@H](OC(C)=O)[C@]5(CC)C=CCN6CC[C@]43[C@@H]65)C2)C1,T/C,"endpoint: median tumor weight change, dose: 4.0 mg/kg/injection, schedule: Q01DX001 (ip), vehicle: water",100 % of control
same,T/C,"endpoint: median tumor weight change, dose: 8.0 mg/kg/injection, schedule: Q01DX001 (ip), vehicle: water",36 % of control
CN=C(N)N/N=C(\C)c1ccc2oc3ccc(/C(C)=N/NC(N)=NC)cc3c2c1,T/C,[3],87 % of control
same,T/C,[4],63 % of control
COc1ccc(/C=C/C(=O)c2cc(C(=O)O)c(OC)cc2OC)cc1OC,T/C,[5],326 % of control
same,T/C,[6],117 % of control
same,T/C,[7],192 % of control
same,T/C,"endpoint: median tumor weight (est.), dose: 50.0 mg/kg/injection, schedule: Q07DX005 (ip), vehicle: suspension in saline",85 % of control
same,T/C,[8],84 % of control
same,T/C,"endpoint: median tumor weight (est.), dose: 100.0 mg/kg/injection, schedule: Q07DX005 (ip), vehicle: suspension in saline",107 % of control
same,T/C,[9],42 % of control
same,T/C,"endpoint: median tumor weight (est.), dose: 200.0 mg/kg/injection, schedule: Q07DX005 (ip), vehicle: suspension in saline",53 % of control
CC1=NN(c2cccc(S(=O)(=O)O)c2)C(=O)C1N=Nc1cc(Cl)cc(S(=O)(=O)O)c1O.CC1=NN(c2cccc(S(=O)(=O)O)c2)C(=O)C1N=Nc1cc(Cl)cc(S(=O)(=O)O)c1O.[Cr] (stereo not given),T/C,"endpoint: median tumor weight change, dose: 125.0 mg/kg/injection, schedule: Q01DX001 (ip), vehicle: saline",245 % of control
same,T/C,"endpoint: median tumor weight change, dose: 250.0 mg/kg/injection, schedule: Q01DX001 (ip), vehicle: saline",184 % of control
CN(C)CCOc1ccc2c(c1)C/C(=C/c1ncc([N+](=O)[O-])n1C)C2=O,T/C,[1],113 % of control
same,T/C,"endpoint: median tumor weight (est.), dose: 25.0 mg/kg/injection, schedule: Q07DX005 (ip), vehicle: saline with Tween-80",100 % of control
same,T/C,[2],93 % of control
same,T/C,"endpoint: median tumor weight (est.), dose: 100.0 mg/kg/injection, schedule: Q07DX005 (ip), vehicle: saline with Tween-80",61 % of control
OC(CCl)CN1CC[N+]2(CC1)CC[N+]1(CCN(CC(O)CCl)CC1)CC2 (stereo not given),T/C,[5],57 % of control
same,T/C,[6],67 % of control
same,T/C,[7],80 % of control
same,T/C,[8],43 % of control
same,T/C,[9],36 % of control
same,T/C,"endpoint: median tumor weight (est.), dose: 400.0 mg/kg/injection, schedule: Q07DX005 (ip), vehicle: saline",11 % of control
same,T/C,"endpoint: median tumor weight change, dose: 50.0 mg/kg/injection, schedule: Q01DX001 (ip), vehicle: saline",101 % of control
same,T/C,"endpoint: median tumor weight change, dose: 100.0 mg/kg/injection, schedule: Q01DX001 (ip), vehicle: saline",111 % of control
same,T/C,"endpoint: median tumor weight change, dose: 200.0 mg/kg/injection, schedule: Q01DX001 (ip), vehicle: saline",96 % of control and 119 % of control
same,T/C,"endpoint: median tumor weight change, dose: 800.0 mg/kg/injection, schedule: Q01DX001 (ip), vehicle: saline",49 % of control and 56 % of control
CC(=O)N(C)C,T/C,"endpoint: median tumor weight change, dose: 225.0 mg/kg/injection, schedule: Q01DX001 (ip), vehicle: saline",52 % of control
same,T/C,"endpoint: median tumor weight change, dose: 450.0 mg/kg/injection, schedule: Q01DX001 (ip), vehicle: saline",85 % of control
same,T/C,"endpoint: median tumor weight change, dose: 900.0 mg/kg/injection, schedule: Q01DX001 (ip), vehicle: saline",72 % of control and 78 % of control
CCC(=O)N(C)[C@@H](C)C(=O)O[C@H]1CC(=O)N(C)c2cc(cc(OC)c2Cl)C/C(C)=C/C=C[C@@H](OC)[C@@]2(O)C[C@H](OC(=O)N2)[C@@H](C)[C@@H]2O[C@@]12C,T/C,"endpoint: median tumor weight (est.), dose: 7.5 micrograms/kg/injection, schedule: Q07DX005 (ip), vehicle: saline + alcohol",210 % of control
same,T/C,"endpoint: median tumor weight (est.), dose: 15.0 micrograms/kg/injection, schedule: Q07DX005 (ip), vehicle: saline + alcohol",112 % of control
same,T/C,"endpoint: median tumor weight (est.), dose: 30.0 micrograms/kg/injection, schedule: Q07DX005 (ip), vehicle: saline + alcohol",84 % of control
same,T/C,"endpoint: median tumor weight (est.), dose: 60.0 micrograms/kg/injection, schedule: Q07DX005 (ip), vehicle: saline + alcohol",98 % of control
